Measured values as given in the supplement of paper PMC10307832.

How the values were obtained:
Test in all cases: relative viability (nuclei count vs DMSO), 5 days (fraction); higher = more cells survive
[1] = compound: Cc1ccc(NC(=O)c2ccc(CN3CCN(C)CC3)cc2)cc1Nc1nccc(-c2cccnc2)n1 [Imatinib]
Summary of the method: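 Lung cancer cell lines in 1536-well plates were exposed by pinning to five library-drug doses (not always all listed) √10 apart, following an overnight hold at 37 °C. MetaXpress counted Hoechst-stained nuclei from 4× images taken after 5 days without medium change. Viability is the median ratio of treated-well to vehicle-well nuclei across plates. Plates required control CV below 25% and at least one doubling.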

[2] = compound: Cc1ccc(NC(=O)c2ccc(CN3CCN(C)CC3)cc2)cc1Nc1nccc(-c2cccnc2)n1 [Imatinib] + CC(C)C[C@H](NC(=O)[C@H](Cc1ccccc1)NC(=O)c1cnccn1)B(O)O [Bortezomib] (partner 0.002 µM)
Summary of the method: (§1)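 A single step with final 0.05% Triton X-100, 1% formaldehyde and 1 ug/ml Hoechst fixed the cells and stained nuclei 5 days after treatment. Lung cancer cell lines in 1536-well plates had been treated by pin tool the day after seeding with one drug alone or a fixed anchor-drug dose plus five library-drug doses (not always all listed) in √10 steps, and nuclei were counted on 4× images. Relative viability is the ratio of nuclei in treated wells to nuclei in vehicle wells, taken as the median of duplicate plates.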

[3] = compound: Cc1ccc(NC(=O)c2ccc(CN3CCN(C)CC3)cc2)cc1Nc1nccc(-c2cccnc2)n1 [Imatinib] + Nc1nc2[nH]cc(CCc3ccc(C(=O)N[C@@H](CCC(=O)O)C(=O)O)cc3)c2c(=O)[nH]1 [Pemetrexed] (partner 0.2 µM)
Summary of the method: as §1

[4] = compound: Cc1ccc(NC(=O)c2ccc(CN3CCN(C)CC3)cc2)cc1Nc1nccc(-c2cccnc2)n1 [Imatinib] + CCNC(=O)c1noc(-c2cc(C(C)C)c(O)cc2O)c1-c1ccc(CN2CCOCC2)cc1 [Luminespib] (partner 0.01 µM)
Summary of the method: as §1

Cell Line	relative viability ([1]; 0.02 µM)	relative viability ([1]; 0.06325 µM)	relative viability ([1]; 0.2 µM)	relative viability ([1]; 0.6325 µM)	relative viability ([1]; 2 µM)	relative viability ([2]; first compound 0.02 µM)	relative viability ([2]; first compound 0.2 µM)	relative viability ([2]; first compound 0.6325 µM)	relative viability ([2]; first compound 2 µM)	relative viability ([3]; first compound 0.02 µM)	relative viability ([3]; first compound 0.2 µM)	relative viability ([3]; first compound 0.6325 µM)	relative viability ([3]; first compound 2 µM)	relative viability ([4]; first compound 0.02 µM)	relative viability ([4]; first compound 0.06325 µM)	relative viability ([4]; first compound 0.2 µM)	relative viability ([4]; first compound 0.6325 µM)	relative viability ([4]; first compound 2 µM)	relative viability ([3]; first compound 0.06325 µM)	relative viability ([2]; first compound 0.06325 µM)
LXF-289	1.06	0.998	1.1	1.01	0.976	1.06	1.13	0.974	0.955	0.91	0.88	0.893	0.923	0.805	0.5	0.615	0.566	0.672	–	–
HCC-366	0.978	0.856	1.06	1.07	0.988	1.46	1.5	1.07	0.929	0.178	0.189	0.173	0.128	–	–	–	–	–	0.197	–
IA-LM	1.04	1.02	0.936	1.27	0.853	0.767	0.937	0.744	0.784	–	–	–	–	–	–	–	–	–	–	1.03
NCI-H1755	1.08	0.988	–	0.958	1.01	1.13	1.03	–	0.928	0.568	0.416	0.386	0.625	0.402	0.371	0.273	0.454	0.418	0.44	1.09
NCI-H460	1.1	0.985	1.11	0.925	1	1.5	1.7	0.92	–	0.0572	0.0551	0.0623	0.0654	0.0343	0.0424	0.0365	0.0344	0.0321	0.0576	1.33
ABC-1	1.11	–	1.07	0.888	0.634	0.311	0.282	0.235	0.348	–	–	–	–	0.911	–	0.445	0.326	–	–	–
NCI-H2342	0.896	0.891	0.972	0.943	0.998	–	–	–	–	0.688	0.834	0.738	–	0.787	0.757	0.728	0.649	0.715	0.665	–
NCI-H1793	0.939	–	1.11	0.884	0.909	–	–	–	–	0.945	1	1.01	0.792	0.253	–	0.164	0.167	0.189	–	–
HCC-78	0.901	0.797	1.06	0.89	0.904	0.33	0.599	0.358	0.479	0.865	0.949	0.916	0.882	–	–	–	–	–	0.955	0.34
NCI-H358	–	0.865	1.02	0.819	0.947	–	–	–	–	0.167	0.189	0.171	0.178	0.317	0.608	0.501	0.308	0.418	0.169	–
NCI-H1355	1.05	–	1.08	0.978	0.99	1.26	1.31	1.13	1.18	1.14	1.11	1.08	1.01	–	–	–	–	–	–	–
Calu-6	1.08	1.08	1.16	1.06	1.02	1.13	1.01	1.08	0.867	–	–	–	–	–	–	–	–	–	–	1.06
NCI-H727	0.818	0.676	0.957	1.08	0.938	0.93	–	0.868	0.745	–	–	–	–	0.319	–	0.242	0.323	0.31	–	0.812
LK-2	1.05	0.805	1.08	0.678	0.97	–	–	–	–	0.272	0.296	–	0.272	0.168	0.174	0.168	0.196	0.199	0.29	–
NCI-H2170	0.987	0.955	1.05	0.961	1.01	–	–	–	–	0.343	0.267	0.256	0.274	0.901	0.395	0.526	0.502	0.735	0.277	–
NCI-H1944	0.974	0.706	0.977	0.969	0.951	–	–	–	–	0.881	0.695	0.656	0.561	0.831	0.655	–	0.665	0.787	0.642	–
SK-MES-1	–	1.05	1.21	1.01	1.04	–	–	–	–	–	1.04	0.889	0.857	0.906	–	0.804	0.714	0.873	1.02	–
NCI-H1648	0.744	0.627	0.699	0.421	0.618	–	–	–	–	0.722	0.721	0.543	0.673	–	–	–	–	–	0.642	–
NCI-H1395	1.13	–	0.897	0.976	0.938	–	–	–	–	0.807	0.955	1.04	0.784	0.79	0.697	0.653	0.737	0.676	–	–
NCI-H1299	1.05	–	1.07	1.02	1.04	1.05	0.98	1.03	1.03	–	–	–	–	–	–	–	–	–	–	1.01
NCI-H1703	0.947	0.804	0.56	0.357	0.212	0.289	0.138	0.214	0.186	–	–	–	–	–	–	–	–	–	–	0.29
EBC-1	1.13	0.878	1.17	1.02	–	0.556	0.52	0.58	0.423	–	–	–	–	–	–	–	–	–	–	0.623
